# Assay results published in patent US20240000872A1, “NOVEL BACTERIOPHAGE THAT LYSES ACINETOBACTER GENUS BACTERIA HAVING RESISTANCE TO ANTIBIOTICS” (priority 2020, published 2024).
# Tested on: Acinetobacter baumannii strains
# Experiment: Antibiotic susceptibility test (CLSI disk diffusion test method, read per CLSI 2016); further: key: ‘S’ means susceptible; ‘I’ means intermediate; ‘R’ means resistant
# Type: cell-based
smiles,measurement,setting,value
"CN(C)c1ccc(O)c2c1C[C@H]1C[C@H]3[C@H](N(C)C)C(O)=C(C(N)=O)C(=O)[C@@]3(O)C(O)=C1C2=O [Minocycline, minocycline]",antibiotic susceptibility class,host strain YMC14/01/C29,S
same,antibiotic susceptibility class,host strain YMC14/01/IP122,S
same,antibiotic susceptibility class,host strain YMC14/01/L8,S
same,antibiotic susceptibility class,host strain YMC14/01/P31,S
same,antibiotic susceptibility class,host strain YMC14/01/P117,S
same,antibiotic susceptibility class,host strain YMC14/01/P224,S
same,antibiotic susceptibility class,host strain YMC14/01/P727,S
same,antibiotic susceptibility class,host strain YMC14/01/P728,S
same,antibiotic susceptibility class,host strain YMC14/01/R130,S
same,antibiotic susceptibility class,host strain YMC14/01/R160,I
same,antibiotic susceptibility class,host strain YMC14/01/R198,I
same,antibiotic susceptibility class,host strain YMC14/01/R257,I
same,antibiotic susceptibility class,host strain YMC14/01/R270,S
same,antibiotic susceptibility class,host strain YMC14/01/R324,S
same,antibiotic susceptibility class,host strain YMC14/01/R443,I
same,antibiotic susceptibility class,host strain YMC14/01/R451,R
same,antibiotic susceptibility class,host strain YMC14/01/R560,R
same,antibiotic susceptibility class,host strain YMC14/01/R617,R
same,antibiotic susceptibility class,host strain YMC14/01/R671,I
same,antibiotic susceptibility class,host strain YMC14/01/R732,S
same,antibiotic susceptibility class,host strain YMC14/01/R767,S
same,antibiotic susceptibility class,host strain YMC14/01/R904,I
same,antibiotic susceptibility class,host strain YMC14/01/R905,I
same,antibiotic susceptibility class,host strain YMC14/01/R921,S
same,antibiotic susceptibility class,host strain YMC14/01/R941,S
same,antibiotic susceptibility class,host strain YMC14/01/R958,S
same,antibiotic susceptibility class,host strain YMC14/01/R1006,S
same,antibiotic susceptibility class,host strain YMC14/01/R1199,S
same,antibiotic susceptibility class,host strain YMC14/01/R1659,S
same,antibiotic susceptibility class,host strain YMC14/01/R1722,S
same,antibiotic susceptibility class,host strain YMC14/01/R1752,S
same,antibiotic susceptibility class,host strain YMC14/01/R2429,S
same,antibiotic susceptibility class,host strain YMC14/01/R2572,S
same,antibiotic susceptibility class,host strain YMC14/01/R2855,S
same,antibiotic susceptibility class,host strain YMC14/01/R2945,S
same,antibiotic susceptibility class,host strain YMC14/01/R3007,S
same,antibiotic susceptibility class,host strain YMC14/01/R3129,S
same,antibiotic susceptibility class,host strain YMC14/01/R3317,S
same,antibiotic susceptibility class,host strain YMC14/01/R3474,S
same,antibiotic susceptibility class,host strain YMC14/01/R3574,S
same,antibiotic susceptibility class,host strain YMC14/01/U313,S
same,antibiotic susceptibility class,host strain YMC14/01/U318,I
same,antibiotic susceptibility class,host strain YMC14/02/L18,S
same,antibiotic susceptibility class,host strain YMC14/02/P47,S
same,antibiotic susceptibility class,host strain YMC14/02/R1860,S
same,antibiotic susceptibility class,host strain YMC14/02/R2417,S
same,antibiotic susceptibility class,host strain YMC14/02/R2599,S
same,antibiotic susceptibility class,host strain YMC14/02/R2668,S
same,antibiotic susceptibility class,host strain YMC14/02/R2758,S
same,antibiotic susceptibility class,host strain YMC14/02/R2781,S
same,antibiotic susceptibility class,host strain YMC14/02/R3106,S
same,antibiotic susceptibility class,host strain YMC14/02/R3419,S
same,antibiotic susceptibility class,host strain YMC14/02/U1607,S
same,antibiotic susceptibility class,host strain YMC14/03/L9,S
same,antibiotic susceptibility class,host strain YMC14/03/P471,S
same,antibiotic susceptibility class,host strain YMC14/03/R122,S
same,antibiotic susceptibility class,host strain YMC14/03/R217,S
same,antibiotic susceptibility class,host strain YMC14/03/R380,S
same,antibiotic susceptibility class,host strain YMC14/03/R618,S
same,antibiotic susceptibility class,host strain YMC14/03/R2144,S
same,antibiotic susceptibility class,host strain YMC14/03/U4616,S
same,antibiotic susceptibility class,host strain YMC14/04/R1078,S
same,antibiotic susceptibility class,host strain YMC14/04/R1080,S
same,antibiotic susceptibility S/I/R,host strain YMC14/06/R2359,S
same,susceptibility category (S/I/R),host strain YMC14/06/R2359,S
same,antibiotic susceptibility S/I/R,host strain YMC14/08/R1169,S
same,susceptibility category (S/I/R),host strain YMC14/08/R1169,S
same,antibiotic susceptibility S/I/R,host strain YMC14/08/T90,S
same,susceptibility category (S/I/R),host strain YMC14/08/T90,S
same,antibiotic susceptibility S/I/R,host strain YMC15/02/R436,R
same,susceptibility category (S/I/R),host strain YMC15/02/R436,R
same,antibiotic susceptibility S/I/R,host strain YMC15/02/T28,S
same,susceptibility category (S/I/R),host strain YMC15/02/T28,S
same,antibiotic susceptibility S/I/R,host strain YMC15/03/R1604,S
same,susceptibility category (S/I/R),host strain YMC15/03/R1604,S
same,antibiotic susceptibility S/I/R,host strain YMC15/09/R1869,S
same,susceptibility category (S/I/R),host strain YMC15/09/R1869,S
same,antibiotic susceptibility S/I/R,host strain YMC16/01/P11,S
same,susceptibility category (S/I/R),host strain YMC16/01/P11,S
same,antibiotic susceptibility S/I/R,host strain YMC16/01/R123,S
same,susceptibility category (S/I/R),host strain YMC16/01/R123,S
same,antibiotic susceptibility S/I/R,host strain YMC16/01/R198,S
same,susceptibility category (S/I/R),host strain YMC16/01/R198,S
same,antibiotic susceptibility S/I/R,host strain YMC16/01/R353,S
same,susceptibility category (S/I/R),host strain YMC16/01/R353,S
same,antibiotic susceptibility S/I/R,host strain YMC16/01/R380,S
same,susceptibility category (S/I/R),host strain YMC16/01/R380,S
same,antibiotic susceptibility S/I/R,host strain YMC16/01/R397,S
same,susceptibility category (S/I/R),host strain YMC16/01/R397,S
same,antibiotic susceptibility S/I/R,host strain YMC16/01/R405,S
same,susceptibility category (S/I/R),host strain YMC16/01/R405,S
same,antibiotic susceptibility S/I/R,host strain YMC16/03/R4461,S
same,susceptibility category (S/I/R),host strain YMC16/03/R4461,S
same,antibiotic susceptibility S/I/R,host strain YMC16/05/R2210,S
same,susceptibility category (S/I/R),host strain YMC16/05/R2210,S
same,antibiotic susceptibility S/I/R,host strain YMC16/07/R2512,S
same,susceptibility category (S/I/R),host strain YMC16/07/R2512,S
same,antibiotic susceptibility S/I/R,host strain YMC16/09/R2471,S
same,susceptibility category (S/I/R),host strain YMC16/09/R2471,S
same,antibiotic susceptibility S/I/R,host strain YMC16/10/R2537,S
same,susceptibility category (S/I/R),host strain YMC16/10/R2537,S
same,antibiotic susceptibility S/I/R,host strain YMC16/12/B11422,S
same,susceptibility category (S/I/R),host strain YMC16/12/B11422,S
same,antibiotic susceptibility S/I/R,host strain YMC16/12/B11449,S
same,susceptibility category (S/I/R),host strain YMC16/12/B11449,S
same,antibiotic susceptibility S/I/R,host strain YMC16/12/B13325,S
same,susceptibility category (S/I/R),host strain YMC16/12/B13325,S
same,antibiotic susceptibility S/I/R,host strain YMC16/12/P503,R
same,susceptibility category (S/I/R),host strain YMC16/12/P503,R
same,antibiotic susceptibility S/I/R,host strain YMC16/12/R4637,R
same,susceptibility category (S/I/R),host strain YMC16/12/R4637,R
same,antibiotic susceptibility S/I/R,host strain YMC17/01/B8053,S
same,susceptibility category (S/I/R),host strain YMC17/01/B8053,S
same,antibiotic susceptibility S/I/R,host strain YMC17/01/B10087,S
same,susceptibility category (S/I/R),host strain YMC17/01/B10087,S
same,antibiotic susceptibility S/I/R,host strain YMC17/01/B12075,S
same,susceptibility category (S/I/R),host strain YMC17/01/B12075,S
same,antibiotic susceptibility S/I/R,host strain YMC17/01/B13454,S
same,susceptibility category (S/I/R),host strain YMC17/01/B13454,S
same,antibiotic susceptibility S/I/R,host strain YMC17/01/P518,S
same,susceptibility category (S/I/R),host strain YMC17/01/P518,S
same,antibiotic susceptibility S/I/R,host strain YMC17/01/R2812,R
same,susceptibility category (S/I/R),host strain YMC17/01/R2812,R
same,susceptibility category (S/I/R),host strain YMC17/02/B14,I
same,susceptibility category (S/I/R),host strain YMC17/02/B87,I
same,antibiotic susceptibility S/I/R,host strain YMC17/02/B721,S
same,susceptibility category (S/I/R),host strain YMC17/02/B721,S
same,antibiotic susceptibility S/I/R,host strain YMC17/02/B4039,S
same,susceptibility category (S/I/R),host strain YMC17/02/B4039,S
same,antibiotic susceptibility S/I/R,host strain YMC17/02/B4520,S
same,susceptibility category (S/I/R),host strain YMC17/02/B4520,S
same,antibiotic susceptibility S/I/R,host strain YMC17/02/B4864,S
same,susceptibility category (S/I/R),host strain YMC17/02/B4864,S
same,antibiotic susceptibility S/I/R,host strain YMC17/02/B8414,S
same,susceptibility category (S/I/R),host strain YMC17/02/B8414,S
same,antibiotic susceptibility S/I/R,host strain YMC17/02/P523,S
same,susceptibility category (S/I/R),host strain YMC17/02/P523,S
same,antibiotic susceptibility S/I/R,host strain YMC17/02/R541,R
same,susceptibility category (S/I/R),host strain YMC17/02/R541,R
same,antibiotic susceptibility S/I/R,host strain YMC17/02/R2392,S
same,susceptibility category (S/I/R),host strain YMC17/02/R2392,S
same,antibiotic susceptibility S/I/R,host strain YMC17/03/B4730,S
same,susceptibility category (S/I/R),host strain YMC17/03/B4730,S
same,susceptibility category (S/I/R),host strain YMC17/03/B5000,I
same,antibiotic susceptibility S/I/R,host strain YMC17/03/P971,S
same,susceptibility category (S/I/R),host strain YMC17/03/P971,S
same,antibiotic susceptibility S/I/R,host strain YMC17/03/R348,S
same,susceptibility category (S/I/R),host strain YMC17/03/R348,S
same,antibiotic susceptibility S/I/R,host strain YMC17/03/R585,R
same,susceptibility category (S/I/R),host strain YMC17/03/R585,R
same,antibiotic susceptibility S/I/R,host strain YMC17/03/R1888,S
same,susceptibility category (S/I/R),host strain YMC17/03/R1888,S
same,antibiotic susceptibility S/I/R,host strain YMC17/03/R3279,S
same,susceptibility category (S/I/R),host strain YMC17/03/R3279,S
same,antibiotic susceptibility S/I/R,host strain YMC17/03/R4077,S
same,susceptibility category (S/I/R),host strain YMC17/03/R4077,S
same,antibiotic susceptibility S/I/R,host strain YMC17/03/R4607,R
same,susceptibility category (S/I/R),host strain YMC17/03/R4607,R
same,antibiotic susceptibility S/I/R,host strain YMC17/04/R488,S
same,susceptibility category (S/I/R),host strain YMC17/04/R488,S
same,antibiotic susceptibility S/I/R,host strain YMC17/04/R640,S
same,susceptibility category (S/I/R),host strain YMC17/04/R640,S
same,antibiotic susceptibility S/I/R,host strain YMC/17/05/R1095,S
same,susceptibility category (S/I/R),host strain YMC/17/05/R1095,S
